The values below come from paper PMC7830570, “Substrate Scope for Human Histone Lysine Acetyltransferase KAT8” (International Journal of Molecular Sciences, 2021).

The target of experiment [1] is T1, human KAT8 (residues 125–458) (Homo sapiens, UniProt Q9H7Z6).
T1 construct: Recombinant human KAT8 (residues 125–458) was expressed in E. coli; His tag; made in house; host or cells: E. coli
T1 sequence (Q9H7Z6 125-458): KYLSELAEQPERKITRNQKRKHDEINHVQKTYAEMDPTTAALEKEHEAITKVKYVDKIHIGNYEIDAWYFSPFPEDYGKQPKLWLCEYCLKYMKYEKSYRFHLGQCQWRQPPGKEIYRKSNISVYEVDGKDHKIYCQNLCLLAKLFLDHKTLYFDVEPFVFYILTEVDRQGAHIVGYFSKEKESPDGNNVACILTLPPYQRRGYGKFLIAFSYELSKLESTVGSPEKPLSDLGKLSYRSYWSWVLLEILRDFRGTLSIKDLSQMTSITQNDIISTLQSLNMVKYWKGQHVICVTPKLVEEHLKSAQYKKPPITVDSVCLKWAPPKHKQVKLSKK
Particulars: lysine analogue on histone peptide; cited from earlier work. On the procedure:
The biocatalytic potential of KAT8 was assessed through a MALDI-TOF MS based enzymatic assay. Human KAT8 was incubated in the presence of H4K*16 peptides and AcCoA under “standard conditions” (2 µM KAT8, 100 µM histone peptide, 300 µM AcCoA; assay buffer: 50 mM Hepes, 0.1 mM EDTA, 1 mM DTT, pH = 8.0) and the production of acetylated peptides was monitored at different time points. […] KAT8-catalysed acetylation of H4K16 was quantitative after 1 h, in line w ... || Subsequently, we investigated the role of the geometrically constrained and steric lysine analogues for KAT8 catalysis. The KAT8-catalysed reaction of H4KE16 produced 64% of acetylated peptide after 1 h, and reached completion within 3 h (Figure 3i and Figure S17).

In experiment [2] the target is T1, human KAT8 (residues 125–458). The experiment can be described thus: MALDI-TOF MS kinetics assay of KAT8-catalysed acetylation under steady-state conditions. In kind it is biochemical. Particulars: pH 7.4, 37 °C. The procedure: Next, we investigated the catalytic efficiencies for the histone peptides that were observed as KAT8 substrates. Kinetics analyses were carried out under steady-state conditions by incubating saturating concentrations of AcCoA against different concentrations of histone peptides.
Histone peptides kinetics evaluation was carried out with a MALDI-TOF MS assay under steady-state conditions as previously described. Briefly, dilution series of H4K*16 peptides (1050 or 700–0 µM) were incubated with AcCoA (100 µM; > 5 x KM value of AcCoA) and the reactions were started by the addition of KAT8 (570 nM) in kinetic buffer (50 mM HEPES, 0.1 mM EDTA, 0.01% TRITON-X, pH = 7.4). AcCoA stock solutions in Milli-Q water were calibrated using a NanoDrop 2000 spectrophotometer (Thermo Scientific, Waltham, MA, USA), with molar extinction coefficient ε260nm = 16,400 M^−1 cm^−1. Reactions were incubated for 20 min at 37 °C, shaken at 750 rpm and quenched with TFA 10% in Milli-Q water at different time points within the linear production of acetylated peptides. Quantification of the acetylated peptide produced was extrapolated, at any concentration point, with FlexAnalysis software, considering all the ionic species. Kinetic parameters were obtained by fitting V0 values and histone peptide concentrations to the Michaelis–Menten equation using the GraphPad Prism 5 software. Kinetic experiments were carried out in replicates (n = 2 or 3) and final values are reported as the mean value ± SD.

Experiment [3] shares this target. The experiment can be described thus: MALDI-TOF MS enzymatic assay of KAT8-catalysed acetylation of H4K*16 histone peptides. In kind it is biochemical. Particulars: standard conditions: 2 µM KAT8, 100 µM histone peptide, 300 µM AcCoA, 50 mM HEPES, 0.1 mM EDTA, 1 mM DTT, pH 8.0, 37 °C. The procedure:
The biocatalytic potential of KAT8 was assessed through a MALDI-TOF MS based enzymatic assay. Human KAT8 was incubated in the presence of H4K*16 peptides and AcCoA under “standard conditions” (2 µM KAT8, 100 µM histone peptide, 300 µM AcCoA; assay buffer: 50 mM Hepes, 0.1 mM EDTA, 1 mM DTT, pH = 8.0) and the production of acetylated peptides was monitored at different time points. […] KAT8-catalysed acetylation of H4K16 was quantitative after 1 h, in line with previous findings (Figure 3a and Figure S17). […] This is an interesting observation, given the well-documented capacity of some histone lysine methyltransferases (KMTs) that introduce higher methylation states (i.e., Kme2 and Kme3) on histone tails starting from Kme as a substrate. […]
KAT8 enzymatic activity towards H4K*16 histone peptides was measured at different time points under standard conditions (2 µM KAT8, 100 µM peptide, 300 µM AcCoA) in reaction buffer (50 mM HEPES, 0.1 mM EDTA, 1 mM DTT, pH = 8.0) as previously described The reactions were performed in a final volume of 50 µL and shaken at 37 °C, using a Thermomixer C (750 rpm). KAT8 activity was stopped at a given time point by the addition of TFA 10% in Milli-Q water, and reactions were analysed by MALDI-TOF MS employing α-Cyano-4-hydroxycinnamic acid (CHCA) matrix.

As to homolysine [hK], in experiment [1], the KAT8 substrate quality result is recorded as “good KAT8 substrate”.
Take “GGAK16RHRKVLRDNIQ [H4K16, histone H4 peptide, residues 13–27, with natural lysine at position 16]”: the “kcat^app” value in experiment [2] (570 nM KAT8, 100 µM AcCoA, peptide 1050 or 700–0 µM, 50 mM HEPES, 0.1 mM EDTA, 0.01% TRITON-X, mean ± SD, n = 2 or 3, SD) was 0.25 ± 0.013 s⁻¹. Also, the Km in experiment [2] (570 nM KAT8, 100 µM AcCoA, peptide 1050 or 700–0 µM, 50 mM HEPES, 0.1 mM EDTA, 0.01% TRITON-X, mean ± SD, n = 2 or 3, SD, read-out: KM^app) amounted to 437 ± 107 µM. Also, the “kcat^app/KM^app” value in experiment [2] (catalytic efficiency from kcat^app and KM^app) was found to be 567 M⁻¹ s⁻¹. In addition, in experiment [3], the “acetylated peptide produced after 1 h” value is recorded as “quantitative”.
For the substance γ-thialysine, in experiment [1], the KAT8 substrate quality entry is “excellent substrate”.
